Data from patent publication US8058306B2, “Phenyl pyrrole aminoguanidine derivatives” (Action Pharma A/S, priority 2006, dated 2011).
Where “and” joins values, the source holds several entries; their conditions need not be identical. Equal entries are not always repeated. Entries after “also recorded” stand apart in the source; their conditions may differ. Where two headings read alike, the source gives them in different places.

Assay: Plasma kinetics in rat following intravenous and oral administration;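 for AUC0-∞: parameter is AUC from zero to infinity in ng·h/mL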
Assay type: in vivo, Sprague Dawley rats
Conditions: male rats
Procedure: This study determined the intravenous pharmacokinetics and oral bioavailability of compound 1 of the invention (see FIG. 1A, structure no. 1), compound 2 of the invention (see FIG. 1D, structure no. 19) and compound 3 of the invention (see FIG. 1I, structure no. 53) following administration to Sprague Dawley rats at a dose level of 10 mg/kg.
Six groups of 3 male rats received either a single intravenous or single oral administration of compound 1, 2 or 3 of the invention at a dose level of 10 mg/kg. Blood samples were obtained at various times after dosing. Plasma samples were analysed for unchanged test item using a suitable LC-MS/MS method. Pharmacokinetic parameters were estimated from individual plasma concentrations.
Eighteen male rats each received either a single intravenous or a single oral administration of either compound 1, 2 or 3 at a dose level of 10 mg/kg. The formulation was orally administered to each animal by gastric gavage and intravenously administered to each animal via a tail vein. The dose was administered at a dose volume of 5 mL/kg. The formulations were administered to each animal according to the details in the following table:
Blood samples (ca 0.3 mL) were removed from the femoral vein of each animal into tubes containing lithium heparin as anticoagulant.
Blood samples were collected from 3 rats at the following times after dose administration: • 3, 6, 15, 45 min and 1.5, 2.5, 4, 6, 8, 24 h post dose. Oral Administration
Blood samples were collected from 3 rats at the following times after dose administration: • 5, 15, 45 min and 1.5, 2.5, 4, 6, 8, 24 h post dose. Processing of Blood Samples
Pharmacokinetic parameters of compound 1, 2 and 3 were derived by non-compartmental analysis using WinNonLin Pro version 5.0.1 (Pharsight 2005). The following parameters were derived, where appropriate, from the individual plasma concentration versus time profiles:
• F % The absolute oral bioavailability calculated as [AUC0-t (oral)*Dose(iv)/AUC0-t (iv)*Dose (oral)]*100 based on mean values derived after oral and intravenous administration Consideration was given to the estimation of λz and corresponding t1/2 values. Three or more points are required within the terminal phase for λz and t1/2 to be estimated. The following additional variables were tabulated to aid identification of potentially unreliable estimates of t1/2 and AUC:
Pharmacokinetic parameters were reported as geometric mean except Tmax which was reported as the median. Geometric coefficient of variation was calculated as: […]
Actual sampling times were used for all calculations of pharmacokinetic parameters. Plasma concentrations that were below the limit of quantification were taken as zero for the pharmacokinetic analysis.

[1] = oral 10 mg/kg, individual animals, acetate, 10 mg/kg

AUC(0-inf) (male, Sprague Dawley, rat, plasma, po, 10 mg/kg, oral 10 mg/kg, Geometric mean): 837 ng·h/mL | AUC(0-t) (male, Sprague Dawley, rat, plasma, po, 10 mg/kg, oral 10 mg/kg, Geometric mean, read-out: AUC0-t): 509 ng·h/mL | Cmax (male, Sprague Dawley, rat, plasma, po, 10 mg/kg, oral 10 mg/kg, Geometric mean, read-out: Cmax): 108 ng/mL | MRT (male, Sprague Dawley, rat, plasma, po, 10 mg/kg, oral 10 mg/kg, Geometric mean, read-out: MRT): 6.83 h | half-life (male, Sprague Dawley, rat, plasma, po, 10 mg/kg, oral 10 mg/kg, Geometric mean, read-out: t1/2 (converted)): 198 min | Tmax (male, Sprague Dawley, rat, plasma, po, 10 mg/kg, oral 10 mg/kg, Geometric mean, read-out: tmax): 4.59 h | AUC(0-inf) (male, Sprague Dawley, rat, plasma, po, 10 mg/kg, oral 10 mg/kg, Median): 838 ng·h/mL | AUC(0-t) (male, Sprague Dawley, rat, plasma, po, 10 mg/kg, oral 10 mg/kg, Median, read-out: AUC0-t): 565 ng·h/mL | Cmax (male, Sprague Dawley, rat, plasma, po, 10 mg/kg, oral 10 mg/kg, Median, read-out: Cmax): 112 ng/mL | MRT (male, Sprague Dawley, rat, plasma, po, 10 mg/kg, oral 10 mg/kg, Median, read-out: MRT): 6.83 h | half-life (male, Sprague Dawley, rat, plasma, po, 10 mg/kg, oral 10 mg/kg, Median, read-out: t1/2 (converted)): 198 min | Tmax (male, Sprague Dawley, rat, plasma, po, 10 mg/kg, oral 10 mg/kg, Median, read-out: tmax): 4.02 h | AUC(0-inf) (male, Sprague Dawley, rat, plasma, po, 10 mg/kg, oral 10 mg/kg, individual animals): 863 ng·h/mL | AUC(0-t) (male, Sprague Dawley, rat, plasma, po, 10 mg/kg, oral 10 mg/kg, individual animals, read-out: AUC0-t): 605 ng·h/mL | Cmax (male, Sprague Dawley, rat, plasma, po, 10 mg/kg, oral 10 mg/kg, individual animals, read-out: Cmax): 132 ng/mL | MRT (male, Sprague Dawley, rat, plasma, po, 10 mg/kg, oral 10 mg/kg, individual animals, read-out: MRT): 6.82 h | half-life (male, Sprague Dawley, rat, plasma, po, 10 mg/kg, oral 10 mg/kg, individual animals, read-out: t1/2 (converted)): 191 min | Tmax (male, Sprague Dawley, rat, plasma, po, 10 mg/kg, oral 10 mg/kg, individual animals, read-out: tmax): 4.02 h | Tmax (male, Sprague Dawley, rat, plasma, po, 10 mg/kg, oral 10 mg/kg, from mean plasma concentrations, read-out: time post dose at which maximum plasma concentration was observed (tmax)): 4 h | half-life (male, Sprague Dawley, rat, plasma, po, 10 mg/kg, oral 10 mg/kg, read-out: apparent terminal half-life (converted)): 198 min | concentration at 0.08 h (male, Sprague Dawley, rat, plasma, po, 10 mg/kg, single oral 10 mg/kg, 0.08 h, individual animals, LLOQ 2.50 (Table X: * 5.0, ** 25, diluted samples), read-out: Sample Concentration in plasma): 2.53 ng/mL | concentration at 0.08 h (male, Sprague Dawley, rat, plasma, po, 10 mg/kg, single oral 10 mg/kg, 0.08 h, mean, read-out: Mean Concentration in plasma): 2.53 ng/mL | concentration at 0.25 h (male, Sprague Dawley, rat, plasma, po, 10 mg/kg, single oral 10 mg/kg, 0.25 h, mean of 3, read-out: Mean Concentration in plasma): 20.5 ng/mL | concentration at 0.75 h (male, Sprague Dawley, rat, plasma, po, 10 mg/kg, single oral 10 mg/kg, 0.75 h, individual animals, read-out: Sample Concentration in plasma): 29.1 ng/mL | concentration at 0.75 h (male, Sprague Dawley, rat, plasma, po, 10 mg/kg, single oral 10 mg/kg, 0.75 h, mean of 3, read-out: Mean Concentration in plasma): 30.8 ng/mL | concentration at 1.5 h (male, Sprague Dawley, rat, plasma, po, 10 mg/kg, single oral 10 mg/kg, 1.5 h, mean of 3, read-out: Mean Concentration in plasma): 39.2 ng/mL | concentration at 2.5 h (male, Sprague Dawley, rat, plasma, po, 10 mg/kg, single oral 10 mg/kg, 2.5 h, mean of 3, read-out: Mean Concentration in plasma): 62.7 ng/mL | concentration at 4 h (male, Sprague Dawley, rat, plasma, po, 10 mg/kg, single oral 10 mg/kg, 4 h, individual animals, read-out: Sample Concentration in plasma): 112 ng/mL | concentration at 4 h (male, Sprague Dawley, rat, plasma, po, 10 mg/kg, single oral 10 mg/kg, 4 h, mean of 3, read-out: Mean Concentration in plasma): 92.5 ng/mL | concentration at 6 h (male, Sprague Dawley, rat, plasma, po, 10 mg/kg, single oral 10 mg/kg, 6 h, individual animals, read-out: Sample Concentration in plasma): 70.4 ng/mL | concentration at 6 h (male, Sprague Dawley, rat, plasma, po, 10 mg/kg, single oral 10 mg/kg, 6 h, mean of 3, read-out: Mean Concentration in plasma): 80.1 ng/mL | concentration at 8 h (male, Sprague Dawley, rat, plasma, po, 10 mg/kg, single oral 10 mg/kg, 8 h, individual animals, LLOQ 2.50, read-out: Sample Concentration in plasma): 50.1 ng/mL | concentration at 8 h (male, Sprague Dawley, rat, plasma, po, 10 mg/kg, single oral 10 mg/kg, 8 h, mean, LLOQ 2.50, read-out: Mean Concentration in plasma): 60.8 ng/mL | mean absorption time (MAT) (oral 10 mg/kg): 3.52 h | MAT (oral 10 mg/kg, Arithmetic Mean): 3.59 h | MAT (oral 10 mg/kg, Geometric mean): 3.52 h | MAT (oral 10 mg/kg, Median): 3.59 h | AUC0-∞ [1]: 812 ng·h/mL | AUC(0-t) [1]: 565 ng·h/mL and 386 ng·h/mL | Cmax [1]: 85.5 ng/mL | MAT [1]: 2.86 h and 4.32 h | MRT [1]: 6.84 h | Tmax [1]: 6.00 h | t1/2 [1]: 3.42 h | maximum observed plasma concentration, mean value (oral 10 mg/kg, at tmax): 92.5 ng/mL | Sample Concentration in plasma (single intravenous 10 mg/kg, 0.05 h, individual animals, acetate, 10 mg/kg): 2940 ng/mL and 4040 ng/mL | Sample Concentration in plasma (single intravenous 10 mg/kg, 0.1 h, individual animals, acetate, 10 mg/kg): 1300 ng/mL and 1030 ng/mL | Sample Concentration in plasma (single intravenous 10 mg/kg, 0.25 h, individual animals, acetate, 10 mg/kg): 904 ng/mL and 954 ng/mL | Sample Concentration in plasma (single intravenous 10 mg/kg, 0.75 h, individual animals, acetate, 10 mg/kg): 445 ng/mL and 545 ng/mL | Sample Concentration in plasma (single intravenous 10 mg/kg, 1.5 h, individual animals, acetate, 10 mg/kg): 327 ng/mL and 403 ng/mL | Sample Concentration in plasma (single intravenous 10 mg/kg, 2.5 h, individual animals, acetate, 10 mg/kg): 274 ng/mL and 240 ng/mL | Sample Concentration in plasma (single intravenous 10 mg/kg, 4 h, individual animals, acetate, 10 mg/kg): 225 ng/mL and 171 ng/mL | Sample Concentration in plasma (single intravenous 10 mg/kg, 6 h, individual animals, acetate, 10 mg/kg): 129 ng/mL and 124 ng/mL | Sample Concentration in plasma (single intravenous 10 mg/kg, 8 h, individual animals, LLOQ 2.50, acetate, 10 mg/kg): <LLOQ and 100 ng/mL | Sample Concentration in plasma (single intravenous 10 mg/kg, 24 h, individual animals, LLOQ 2.50, acetate, 10 mg/kg): <LLOQ and 2.55 ng/mL | Sample Concentration in plasma (single oral 10 mg/kg, 0.08 h, individual animals, LLOQ 2.50 (Table X: * 5.0, ** 25, diluted samples), acetate, 10 mg/kg): <LLOQ | Sample Concentration in plasma (single oral 10 mg/kg, 0.25 h, individual animals, acetate, 10 mg/kg): 14.7 ng/mL and 14.1 ng/mL and 32.8 ng/mL | Sample Concentration in plasma (single oral 10 mg/kg, 0.75 h, individual animals, acetate, 10 mg/kg): 26.6 ng/mL and 36.6 ng/mL | Sample Concentration in plasma (single oral 10 mg/kg, 1.5 h, individual animals, acetate, 10 mg/kg): 61.4 ng/mL and 19.2 ng/mL and 37.0 ng/mL | Sample Concentration in plasma (single oral 10 mg/kg, 2.5 h, individual animals, acetate, 10 mg/kg): 82.5 ng/mL and 37.2 ng/mL and 68.4 ng/mL | Sample Concentration in plasma (single oral 10 mg/kg, 4 h, individual animals, acetate, 10 mg/kg): *33.4 ng/mL and 132 ng/mL | Sample Concentration in plasma (single oral 10 mg/kg, 6 h, individual animals, acetate, 10 mg/kg): 85.5 ng/mL and 84.5 ng/mL | Sample Concentration in plasma (single oral 10 mg/kg, 8 h, individual animals, LLOQ 2.50, acetate, 10 mg/kg): 76.1 ng/mL and 56.2 ng/mL | Sample Concentration in plasma (single oral 10 mg/kg, 24 h, individual animals, LLOQ 2.50): <LLOQ | Mean Concentration in plasma (single oral 10 mg/kg, 24 h, mean, LLOQ 2.50): <LLOQ
SMILES: N=C(N)NN=CC=Cc1cccn1-c1ccccc1Br [Compound 3, [1-(2-bromophenyl)-1H-pyrrol-2-yl-allylideneamino]guanidinium acetate]
adverse effects (single intravenous or oral administration, 10 mg/kg, acetate): No adverse effects; also recorded: No adverse affects
